Here are results for nine compounds from PubChem BioAssay (NCI).

Test systems include HCC-2998 colon; SK-MEL-28 melanoma; SF-268 CNS; SK-MEL-5 melanoma; ACHN renal; RXF 393 renal; OVCAR-8 ovarian; IGROV1 ovarian; OVCAR-4 ovarian; 786-0 renal.
Holding throughout (assay): NCI tumour cell line growth inhibition, 48 h

Values joined by “and” are separate entries in the source; they are usually repeats but may differ in a detail not shown here. Identical values can stand only once.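 96-well plates; 48 h exposure; 5 concentrations. Endpoints by linear interpolation between flanking doses. Not reached: highest tested concentration assigned. GI50 is the concentration that inhibits growth by half. Definition used: TGI = concentration required for complete inhibition of growth.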 A value given as a limit tells only on which side of the number the result lay.

`CCCCCOc1ccc(/C=N/Nc2cc(C)nc3ccc(Br)cc23)cc1`: the GI50 is 2070 nM in the test with HCC-2998 colon; 1650 nM in the test with SK-MEL-28 melanoma; 1970 nM with SF-268 CNS; 1740 nM in the test with SK-MEL-5 melanoma; 1770 nM with ACHN renal; 1670 nM in the test on RXF 393 renal. Also, the GI50 in the test with OVCAR-8 ovarian is 2130 nM; with IGROV1 ovarian, 1720 nM; in the test with OVCAR-4 ovarian, 1760 nM; with 786-0 renal it was 1800 nM. In addition, the TGI with HCC-2998 colon is 3800 nM; in the test on SK-MEL-28 melanoma, 3100 nM; in the test with SF-268 CNS it was 3730 nM; with SK-MEL-5 melanoma it was 3160 nM; in the test on ACHN renal, 3170 nM; in the test on RXF 393 renal, 3190 nM. The TGI is 4730 nM in the test with OVCAR-8 ovarian, 3370 nM in the test with IGROV1 ovarian, 3270 nM with OVCAR-4 ovarian and 3430 nM in the test with 786-0 renal.
As for `CC[C@H]1CN2CCc3cc(OC)c(OC)cc3[C@@H]2C[C@@H]1C[C@H]1NCCc2c1[nH]c1ccc(O)cc21`, the GI50 in the test on HCC-2998 colon is 22.9 nM and 28.7 nM; in the test on SK-MEL-28 melanoma it was 31.6 nM and 42.5 nM; with SF-268 CNS it was 31.5 nM and 25.3 nM; in the test on SK-MEL-5 melanoma, 23.4 nM and 140 nM; in the test with ACHN renal, 78.2 nM and 121 nM; in the test on RXF 393 renal, 19.4 nM and 35.1 nM. Moreover, the GI50 in the test on OVCAR-8 ovarian was 32.3 nM and 37.7 nM; with IGROV1 ovarian it was 26.7 nM and 32.8 nM; in the test on OVCAR-4 ovarian, 13.8 nM; in the test on 786-0 renal it was 24.6 nM and 42.1 nM. Also, the TGI with HCC-2998 colon is 56.8 nM and 85.6 nM and 75.8 nM; in the test with SK-MEL-28 melanoma it was 81.3 nM and 256 nM and 410 nM; in the test on SF-268 CNS, 93.1 nM and 75 nM and 263 nM; in the test on SK-MEL-5 melanoma, 55.3 nM and 294 nM and 30.4 nM; with ACHN renal, 570 nM and 511 nM and 1500 nM; in the test with RXF 393 renal it was 62.9 nM and 252 nM and 183 nM. Besides, the TGI is 80.6 nM and 159 nM and 196 nM with IGROV1 ovarian; 44.3 nM and 43.6 nM and < 12.4 nM in the test with OVCAR-4 ovarian.
`CC1=NC(=Cc2cc(Br)cc(Br)c2)C(=O)N1n1c(-c2ccccc2)nc2ccccc2c1=O`: the TGI in the test with HCC-2998 colon, with SK-MEL-28 melanoma, in the test on SF-268 CNS, in the test on SK-MEL-5 melanoma, in the test on ACHN renal and with RXF 393 renal was greater than 100000 nM each time. Besides, the TGI in the test with OVCAR-8 ovarian, in the test with IGROV1 ovarian, with OVCAR-4 ovarian and with 786-0 renal was greater than 100000 nM each time.
For `C=C1C(=O)O[C@H]2[C@H]1CC/C(COC(=O)/C=C\C(=O)NCc1ccc(Cn3c(=O)sn(CCCC)c3=O)cc1)=C\CC[C@@]1(C)O[C@@H]21`, the GI50 in the test with HCC-2998 colon is 1640 nM; in the test on SK-MEL-28 melanoma, 1410 nM; in the test with SF-268 CNS, 1390 nM; with SK-MEL-5 melanoma, 1400 nM; in the test with ACHN renal, 299 nM; in the test with RXF 393 renal, 547 nM. The GI50 with OVCAR-8 ovarian is 828 nM; in the test on IGROV1 ovarian, 556 nM; in the test with OVCAR-4 ovarian it was 626 nM; with 786-0 renal, 1200 nM. Moreover, the TGI amounted to 3190 nM in the test on HCC-2998 colon; 2740 nM with SK-MEL-28 melanoma; 2780 nM with SF-268 CNS; 2710 nM in the test on SK-MEL-5 melanoma; 994 nM with ACHN renal; 1790 nM in the test with RXF 393 renal. For the same compound, the TGI worked out at 3320 nM with OVCAR-8 ovarian, 1730 nM in the test with IGROV1 ovarian, 1870 nM with OVCAR-4 ovarian and 2560 nM with 786-0 renal.
In the case of `COc1cc(C=O)c(-c2cc(OC)c(OC)cc2C=O)cc1OC`, the TGI in the test with HCC-2998 colon is greater than 100000 nM; in the test on SK-MEL-28 melanoma, greater than 100000 nM; in the test with SF-268 CNS, greater than 100000 nM; in the test with SK-MEL-5 melanoma, greater than 100000 nM; with ACHN renal, greater than 100000 nM; with RXF 393 renal, 86300 nM. For the same compound, the TGI with OVCAR-8 ovarian, in the test with IGROV1 ovarian, in the test on OVCAR-4 ovarian and in the test on 786-0 renal was greater than 100000 nM throughout.
With `COc1ccc(O)c(C(=O)c2ccc(C(=O)N[C@H]3CCCNC[C@@H]3NC(=O)c3ccncc3)cc2)c1F`, the GI50 in the test on HCC-2998 colon is 9740 nM; with SK-MEL-28 melanoma, greater than 18400 nM; with SF-268 CNS it was 1750 nM; with SK-MEL-5 melanoma, 5500 nM; with ACHN renal it was 11500 nM; with RXF 393 renal it was 1440 nM. For the same compound, the GI50 in the test on OVCAR-8 ovarian is 5500 nM; in the test on IGROV1 ovarian it was 3740 nM; with OVCAR-4 ovarian, greater than 12300 nM; in the test on 786-0 renal, 3070 nM. For the same compound, the TGI with HCC-2998 colon was greater than 25000 nM; in the test with SK-MEL-28 melanoma, greater than 25000 nM; in the test on SF-268 CNS it was greater than 20600 nM; with SK-MEL-5 melanoma, greater than 17800 nM; with ACHN renal, greater than 25000 nM; in the test on RXF 393 renal, 15000 nM. Moreover, the TGI in the test on OVCAR-8 ovarian is greater than 21300 nM; in the test on IGROV1 ovarian, greater than 25000 nM; in the test on OVCAR-4 ovarian it was greater than 25000 nM; with 786-0 renal, greater than 20200 nM.
Consider `O=C(CSC1CCc2ccccc21)N/N=C/c1ccccc1O` (stereo not drawn), for which the GI50 with HCC-2998 colon was 5590 nM; in the test on SK-MEL-28 melanoma, 4720 nM; with SF-268 CNS, 3330 nM; in the test on SK-MEL-5 melanoma, 1850 nM; with ACHN renal, 2670 nM; in the test with RXF 393 renal, 5270 nM. Moreover, the GI50 with OVCAR-8 ovarian was 3660 nM; with IGROV1 ovarian, 2240 nM; in the test on OVCAR-4 ovarian, 1550 nM; in the test with 786-0 renal, 6870 nM. Moreover, the TGI in the test with HCC-2998 colon is 35400 nM; in the test with SK-MEL-28 melanoma it was greater than 100000 nM; with SF-268 CNS, greater than 100000 nM; in the test on SK-MEL-5 melanoma it was 5170 nM; in the test with ACHN renal, 20000 nM; with RXF 393 renal, 61300 nM. The TGI is greater than 100000 nM with OVCAR-8 ovarian, 37400 nM in the test with IGROV1 ovarian, 92500 nM in the test with OVCAR-4 ovarian and greater than 100000 nM with 786-0 renal.
On to `Cc1cc(C)nc(NS(=O)(=O)c2ccc(NC(=O)c3cccc4c(Nc5ccc(S(N)(=O)=O)cc5)c5ccccc5nc34)cc2)n1`, for which the TGI in the test on HCC-2998 colon is 36100 nM; with SK-MEL-28 melanoma, greater than 29300 nM; in the test on SF-268 CNS, greater than 67400 nM; in the test on SK-MEL-5 melanoma it was greater than 95900 nM; in the test with ACHN renal it was greater than 100000 nM; in the test on RXF 393 renal, greater than 81800 nM. The TGI was greater than 100000 nM with OVCAR-8 ovarian, 28400 nM in the test with IGROV1 ovarian, greater than 85500 nM in the test with OVCAR-4 ovarian and greater than 100000 nM in the test on 786-0 renal.
For `COc1c[c]([Hg][O]C(C)=O)c(OC)c(NC(=O)CC(C)=O)[c]1[Hg][O]C(C)=O`, the GI50 in the test on HCC-2998 colon is 15800 nM; with SK-MEL-28 melanoma, 1830 nM; in the test with SF-268 CNS, 13600 nM; in the test with SK-MEL-5 melanoma, 2750 nM; with ACHN renal it was 3010 nM; in the test with RXF 393 renal, 2860 nM. The GI50 with OVCAR-8 ovarian was 6710 nM; in the test on IGROV1 ovarian, 11000 nM; with OVCAR-4 ovarian it was 15900 nM; with 786-0 renal, 2480 nM. Besides, the TGI with HCC-2998 colon amounted to 30100 nM; with SK-MEL-28 melanoma, 3610 nM; in the test with SF-268 CNS, 18900 nM; in the test with SK-MEL-5 melanoma it was 11200 nM; in the test on ACHN renal it was 8530 nM; in the test on RXF 393 renal, 7300 nM. In addition, the TGI was greater than 19900 nM in the test on OVCAR-8 ovarian, 23900 nM in the test on IGROV1 ovarian, 30000 nM in the test with OVCAR-4 ovarian and 7710 nM in the test on 786-0 renal.
